Earlier results on one compound are cited in patent US8927002B2, “Stent with a coating or a basic body containing a lithium salt and use of lithium salts for prevention of restenosis” (Biotronik VI Patent AG, priority 2008, dated 2015).

Data set [1] concerns interleukins (IL-15; IL-8).
In data set [2] the test system is various prostate cancer cell lines. To be noted: cell culture; by reducing gene expression in the S-phase of the cell cycle.

Turning to `[Cl-].[Li+]` [lithium chloride], in data set [1], the “secretion of certain interleukins (IL-15; IL-8)” value is given as “increased secretion”. The “proliferation of various prostate cancer cell lines” value in data set [2] was “significantly suppresses the proliferation”.
